Experimental data: patent US9023821B2, “Use of MicroRNA for treating diseases associated with a dysfunction of the cilia in multiciliated epithelial cells” (Centre National de la Recherche Scientifique, priority 2009, dated 2015)

How the values were obtained:
[1] = tested on: basal cells and pyramidal cells of the airway epithelium; assay: miRNA expression in sorted basal cells versus pyramidal cells (ciliated + secretory), HTS and Agilent chips; set-up: species or system human; details: for Modulation of expression of the miRNAs in pyramidal cells (323(−)) relative to basal cells 323(+): HTS and Agilent chips; for Intensity of the level of expression in log2 in pyramidal cells (323(−)): pyramidal cells (ciliated + secretory)
Summary of the method: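 Sorted basal versus ciliated/mucus-secreting cells; markers CD151 and tissue factor; donors n=3; miRNA by Agilent chip or HTS.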

[2] = tested on: human airway epithelial cells (HAECs); assay: High-throughput sequencing (HTS) of miRNAs at four stages of differentiation of HAECs; details: for Modulation (ratio of the level of intensity of expression in log2 in two stages of differentiation) measured by high-throughput sequencing, D7 − D0 / Modulation (ratio of the level of intensity of expression in log2 in two stages of differentiation) measured by high-throughput sequencing, FC − D7 / Modulation (ratio of the level of intensity of expression in log2 in two stages of differentiation) measured by high-throughput sequencing, WD − D0 / Modulation (ratio of the level of intensity of expression in log2 in two stages of differentiation) measured by high-throughput sequencing, WD − FC / Level of intensity of expression in log2 measured by high-throughput sequencing, D0 / Level of intensity of expression in log2 measured by high-throughput sequencing, D7 / Level of intensity of expression in log2 measured by high-throughput sequencing, FC / Level of intensity of expression in log2 measured by high-throughput sequencing, WD: Table VI; for Level of intensity of expression in log2 At the differentiated stage (WD) measured in HTS: healthy human airway epithelial tissue; for Level of intensity of expression in log2 measured by high-throughput sequencing, D0: stage D0; for Level of intensity of expression in log2 measured by high-throughput sequencing, D7: stage D7; for Level of intensity of expression in log2 measured by high-throughput sequencing, FC: stage FC; for Level of intensity of expression in log2 At the differentiated stage (WD) measured in HTS / Level of intensity of expression in log2 measured by high-throughput sequencing, WD: stage WD
Summary of the method: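 Differentiation time course at air-liquid interface: 0, 7, ~14 (first cilia) and ~21 days (fully differentiated). Sequencing counts per strand were normalized to 10^6 sequences and analysed by linear model with empirical Bayesian moderation.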

[3] = tested on: human airway epithelial cells (HAECs); assay: Agilent miRNA chips, miRNA expression at four stages of differentiation of HAECs; details: for Modulation (ratio of the level of intensity of expression in log2 in two stages of differentiation) measured with the Agilent chips, D7 − D0 / Modulation (ratio of the level of intensity of expression in log2 in two stages of differentiation) measured with the Agilent chips, FC − D7 / Modulation (ratio of the level of intensity of expression in log2 in two stages of differentiation) measured with the Agilent chips, WD − D0 / Modulation (ratio of the level of intensity of expression in log2 in two stages of differentiation) measured with the Agilent chips, WD − FC / Level of intensity of expression in log2 measured with the Agilent chips, D0 / Level of intensity of expression in log2 measured with the Agilent chips, D7 / Level of intensity of expression in log2 measured with the Agilent chips, FC / Level of intensity of expression in log2 measured with the Agilent chips, WD: Table VI; for Modulation (ratio of the level of intensity of expression in log2 at two stages of differentiation), FC − D7 / Modulation (ratio of the level of intensity of expression in log2 at two stages of differentiation), WD − FC: Agilent miRNA chips, Table V; for Level of intensity of expression in log2 measured with the Agilent chips, D0: stage D0; for Level of intensity of expression in log2 measured with the Agilent chips, D7: stage D7; for Level of intensity of expression in log2 measured with the Agilent chips, FC: stage FC; for Level of intensity of expression in log2 measured with the Agilent chips, WD: stage WD
Summary of the method: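 RNA from the same patients' HAECs at four differentiation stages was labelled and hybridized with the Agilent miRNA labeling and hybridization kit. Chips were Human miRNA Microarray v2, with 866 human and 89 viral miRNAs (miRBase v12.0). Profiles were compared with high-throughput sequencing data.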

hsa-miR-30d: human miRNA, SEQ ID No. 35 (UGUAAACAUCCCCGACUGGAAG; expressed or natural sequence; listed as Homo sapiens)
Modulation of expression of the miRNAs in pyramidal cells (323(−)) relative to basal cells 323(+) [1]: −1.11
Intensity of the level of expression in log2 in basal cells (323(+)) [1]: 8.16 log2
Intensity of the level of expression in log2 in pyramidal cells (323(−)) [1]: 7.05 log2
Modulation (ratio of the level of intensity of expression in log2 in two stages of differentiation) measured by high-throughput sequencing, D7 − D0 [2]: 0.64 log2
Modulation (ratio of the level of intensity of expression in log2 in two stages of differentiation) measured by high-throughput sequencing, FC − D7 [2]: −0.09 log2
Modulation (ratio of the level of intensity of expression in log2 in two stages of differentiation) measured by high-throughput sequencing, WD − D0 [2]: 1.75 log2
Modulation (ratio of the level of intensity of expression in log2 in two stages of differentiation) measured by high-throughput sequencing, WD − FC [2]: 1.20 log2
Level of intensity of expression in log2 At the differentiated stage (WD) measured in HTS [2]: 8.76 log2
Level of intensity of expression in log2 measured by high-throughput sequencing, D0 [2]: 9.12 log2
Level of intensity of expression in log2 measured by high-throughput sequencing, D7 [2]: 9.76 log2
Level of intensity of expression in log2 measured by high-throughput sequencing, FC [2]: 9.67 log2
Level of intensity of expression in log2 measured by high-throughput sequencing, WD [2]: 10.87 log2
Modulation (ratio of the level of intensity of expression in log2 in two stages of differentiation) measured with the Agilent chips, D7 − D0 [3]: 1.88 log2
Modulation (ratio of the level of intensity of expression in log2 at two stages of differentiation), FC − D7 [3]: −0.06 log2
Modulation (ratio of the level of intensity of expression in log2 in two stages of differentiation) measured with the Agilent chips, FC − D7 [3]: −0.06 log2
Modulation (ratio of the level of intensity of expression in log2 in two stages of differentiation) measured with the Agilent chips, WD − D0 [3]: 1.86 log2
Modulation (ratio of the level of intensity of expression in log2 at two stages of differentiation), WD − FC [3]: 0.05 log2
Modulation (ratio of the level of intensity of expression in log2 in two stages of differentiation) measured with the Agilent chips, WD − FC [3]: 0.05 log2
Level of intensity of expression in log2 measured with the Agilent chips, D0 [3]: 7.06 log2
Level of intensity of expression in log2 measured with the Agilent chips, D7 [3]: 8.94 log2
Level of intensity of expression in log2 measured with the Agilent chips, FC [3]: 8.88 log2
Level of intensity of expression in log2 measured with the Agilent chips, WD [3]: 8.92 log2

hsa-miR-30e: human miRNA, SEQ ID No. 36 (UGUAAACAUCCUUGACUGGAAG; expressed or natural sequence; listed as Homo sapiens)
Modulation of expression of the miRNAs in pyramidal cells (323(−)) relative to basal cells 323(+) [1]: −1.60
Intensity of the level of expression in log2 in basal cells (323(+)) [1]: 6.94 log2
Intensity of the level of expression in log2 in pyramidal cells (323(−)) [1]: 5.34 log2
Modulation (ratio of the level of intensity of expression in log2 in two stages of differentiation) measured by high-throughput sequencing, D7 − D0 [2]: 1.27 log2
Modulation (ratio of the level of intensity of expression in log2 in two stages of differentiation) measured by high-throughput sequencing, FC − D7 [2]: −0.02 log2
Modulation (ratio of the level of intensity of expression in log2 in two stages of differentiation) measured by high-throughput sequencing, WD − D0 [2]: 1.71 log2
Modulation (ratio of the level of intensity of expression in log2 in two stages of differentiation) measured by high-throughput sequencing, WD − FC [2]: 0.46 log2
Level of intensity of expression in log2 At the differentiated stage (WD) measured in HTS [2]: 12.74 log2
Level of intensity of expression in log2 measured by high-throughput sequencing, D0 [2]: 7.04 log2
Level of intensity of expression in log2 measured by high-throughput sequencing, D7 [2]: 8.31 log2
Level of intensity of expression in log2 measured by high-throughput sequencing, FC [2]: 8.30 log2
Level of intensity of expression in log2 measured by high-throughput sequencing, WD [2]: 8.76 log2
Modulation (ratio of the level of intensity of expression in log2 in two stages of differentiation) measured with the Agilent chips, D7 − D0 [3]: 2.76 log2
Modulation (ratio of the level of intensity of expression in log2 at two stages of differentiation), FC − D7 [3]: −0.25 log2
Modulation (ratio of the level of intensity of expression in log2 in two stages of differentiation) measured with the Agilent chips, FC − D7 [3]: −0.25 log2
Modulation (ratio of the level of intensity of expression in log2 in two stages of differentiation) measured with the Agilent chips, WD − D0 [3]: 2.38 log2
Modulation (ratio of the level of intensity of expression in log2 at two stages of differentiation), WD − FC [3]: −0.13 log2
Modulation (ratio of the level of intensity of expression in log2 in two stages of differentiation) measured with the Agilent chips, WD − FC [3]: −0.13 log2
Level of intensity of expression in log2 measured with the Agilent chips, D0 [3]: 6.73 log2
Level of intensity of expression in log2 measured with the Agilent chips, D7 [3]: 9.50 log2
Level of intensity of expression in log2 measured with the Agilent chips, FC [3]: 9.25 log2
Level of intensity of expression in log2 measured with the Agilent chips, WD [3]: 9.12 log2
